Laboratory results as given in patent US20060069132A1, “Azolecarboxamide herbicides” (priority 2004, published 2006).

Legend:
barnyardgrass [1] = experiment: Test A pre-/postemergence herbicide test; format: in vivo, Echinochloa crus-galli
Procedure, shortened: (§1)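 Visual injury scores on a 0–100 scale (100 = complete control) taken about ten days post-treatment in greenhouse against untreated controls; dash means no result. Treatments: preemergence soil spray and postemergence spray to runoff on one- to two-leaf plants 2 to 10 cm tall, surfactant-containing formulation.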

large crabgrass [2] = experiment: Test A pre-/postemergence herbicide test; format: in vivo, Digitaria sanguinalis
Procedure, shortened: as §1

giant foxtail [3] = experiment: Test A pre-/postemergence herbicide test; format: in vivo, Setaria faberi
Procedure, shortened: as §1

morningglory [4] = experiment: Test A pre-/postemergence herbicide test; format: in vivo, Ipomoea spp.
Procedure, shortened: as §1

redroot pigweed = experiment: Test A pre-/postemergence herbicide test; format: in vivo, Amaranthus retroflexus
Procedure, shortened: as §1

velvetleaf [5] = experiment: Test A pre-/postemergence herbicide test; format: in vivo, Abutilon theophrasti
Procedure, shortened: as §1

barnyardgrass [6] = experiment: Test B pre-/postemergence herbicide test; format: in vivo, Echinochloa crus-galli; conditions: for Barnyardgrass plant response rating: postemergence
Procedure, shortened: (§2)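 Flooded paddy rice and barnyardgrass were treated at the 2-leaf stage; upland plantings received compound either on sown seed or on 1- to 4-leaf seedlings. All were kept 13–15 days in a greenhouse and scored visually, 0–100, relative to untreated plants.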

Surinam grass = experiment: Test B pre-/postemergence herbicide test; format: in vivo, Urochloa decumbens; conditions: for Surinam Grass plant response rating: postemergence
Procedure, shortened: (§3)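 Greenhouse pot assay with simultaneous preemergence (treated seed) and postemergence (2–18 cm seedlings) applications of surfactant-containing, non-phytotoxic solvent formulations. Response scored visually 13–15 days later on a 0–100 scale, 100 meaning complete control.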

cocklebur = experiment: Test B pre-/postemergence herbicide test; format: in vivo, Xanthium strumarium; conditions: for Cocklebur plant response rating: postemergence
Procedure, shortened: as §2

corn = experiment: Test B pre-/postemergence herbicide test; format: in vivo, Zea mays; conditions: for Corn plant response rating: postemergence
Procedure, shortened: as §3

large crabgrass [7] = experiment: Test B pre-/postemergence herbicide test; format: in vivo, Digitaria sanguinalis; conditions: for Crabgrass, Large plant response rating: postemergence
Procedure, shortened: as §3

giant foxtail [8] = experiment: Test B pre-/postemergence herbicide test; format: in vivo, Setaria faberi; conditions: for Foxtail, Giant plant response rating: postemergence
Procedure, shortened: as §3

lambsquarters = experiment: Test B pre-/postemergence herbicide test; format: in vivo, Chenopodium album; conditions: for Lambsquarters plant response rating: postemergence
Procedure, shortened: as §3

morningglory [9] = experiment: Test B pre-/postemergence herbicide test; format: in vivo, Ipomoea coccinea; conditions: for Morningglory plant response rating: postemergence
Procedure, shortened: as §2

pigweed = experiment: Test B pre-/postemergence herbicide test; format: in vivo, Amaranthus retroflexus; conditions: for Pigweed plant response rating: postemergence
Procedure, shortened: as §3

rice [10] = experiment: Test B pre-/postemergence herbicide test; format: in vivo, Oryza sativa; conditions: 0 = no effect, 100 = complete control, preemergence
Procedure, shortened: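 Species tested were Echinochloa crus-galli, Ipomoea coccinea, Xanthium strumarium and Oryza sativa, treated both before emergence and at the 1- to 4-leaf stage; rice and barnyardgrass were also tested under flooding at 2 leaves. Greenhouse incubation lasted 13–15 days before visual 0–100 scoring.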

velvetleaf [11] = experiment: Test B pre-/postemergence herbicide test; format: in vivo, Abutilon theophrasti; conditions: for Velvetleaf plant response rating: postemergence
Procedure, shortened: as §3

blackgrass = experiment: Test B postemergence herbicide test; format: in vivo, Alopecurus myosuroides; conditions: postemergence
Procedure, shortened: (§4)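 After treating 2-leaf paddy plants or 2–18 cm postemergence plants (1 to 4 leaves) with formulated chemical, researchers kept them in a greenhouse for 13–15 days. Effects were judged visually versus controls: 0 indicates none, 100 total control.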

wheat = experiment: Test B postemergence herbicide test; format: in vivo, Triticum aestivum; set-up: key to Wheat plant response rating: 0 = no effect, 100 = complete control; conditions: postemergence
Procedure, shortened: (§5)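 Treated at 2-leaf (paddy) or 1–4-leaf, 2–18 cm (postemergence); greenhouse 13–15 d; visual score vs control, 0 none to 100 complete control; dash = not tested.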

wild oat = experiment: Test B postemergence herbicide test; format: in vivo, Avena fatua; conditions: postemergence
Procedure, shortened: as §5

rice [12] = experiment: Test B flooded paddy test; format: in vivo, Oryza sativa; conditions: 1000 g ai/ha, scale 0 to 100 (0 no effect, 100 complete control)
Procedure, shortened: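 Greenhouse test; postemergence application to plants at 1–4 leaves (2–18 cm); paddy species at 2 leaves; evaluated visually vs controls at 13–15 days; scale 0–100 (100 = complete control).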

[13] = system: small flower umbrella sedge; experiment: Test B flooded paddy test; format: in vivo, Cyperus difformis; conditions: 1000 g ai/ha, scale 0 to 100 (0 no effect, 100 complete control)
Procedure, shortened: as §4

ducksalad = experiment: Test B flooded paddy test; format: in vivo, Heteranthera limosa; conditions: 1000 g ai/ha, scale 0 to 100 (0 no effect, 100 complete control)
Procedure, shortened: as §4

barnyardgrass [14] = experiment: Test B flooded paddy test; format: in vivo, Echinochloa crus-galli; conditions: 1000 g ai/ha, scale 0 to 100 (0 no effect, 100 complete control)
Procedure, shortened: as §4

[15] = Postemergence, 500 g ai/ha, 0 to 100 scale, 0 no effect, 100 complete control
[16] = Postemergence, 2000 g ai/ha, 0 to 100 scale, 0 no effect, 100 complete control
[17] = Preemergence, 2000 g ai/ha, visual rating, 0 to 100 scale (0 no effect, 100 complete control)
[18] = preemergence, 500 g ai/ha, visual injury, 0 to 100 scale (0 no effect, 100 complete control)
[19] = 125 g ai/ha, 0 = no effect, 100 = complete control, preemergence
[20] = 125 g ai/ha, visual rating, scale 0 (no effect) to 100 (complete control)
[21] = 500 g ai/ha, visual rating, 0 = no effect, 100 = complete control, preemergence
[22] = 500 g ai/ha, scale 0 to 100, 0 is no effect, 100 is complete control

CCn1nc(C(C)(C)C)cc1C(=O)Nc1cncc(C(=O)NCC(F)(F)F)n1 [Compound 291]
60: Surinam Grass plant response rating (Surinam grass; [22]) | Corn plant response rating (corn; [22]) | Lambsquarters plant response rating (lambsquarters; [22]) | Velvetleaf plant response rating (velvetleaf [11]; [22])
30: Foxtail, Giant plant response rating (giant foxtail [3]; [15]) | Plant response rating, Pigweed (redroot pigweed; [16]) | Barnyardgrass plant response rating (barnyardgrass [6]; [22]) | Crabgrass, Large plant response rating (large crabgrass [7]; [22]) | Pigweed plant response rating (pigweed; [22])
0: Barnyardgrass plant response rating (barnyardgrass [1]; [18]) | Crabgrass, Large plant response rating (large crabgrass [2]; [18]) | Foxtail, Giant plant response rating (giant foxtail [3]; [17]) | Foxtail, Giant plant response rating (giant foxtail [3]; [18]) | Morningglory plant response rating (morningglory [4]; [17]) | Morningglory plant response rating (morningglory [4]; [18]) | Pigweed plant response rating (redroot pigweed; [18]) | Velvetleaf plant response rating (velvetleaf [5]; [17]) | Velvetleaf plant response rating (velvetleaf [5]; [18]) | Barnyardgrass plant response rating (0 to 100 scale) (barnyardgrass [6]; [19]) | Barnyardgrass plant response rating (barnyardgrass [6]; [20]) | Plant response rating, Barnyardgrass (barnyardgrass [6]; [21]) | Surinam Grass plant response rating (0 to 100 scale) (Surinam grass; [19]) | Surinam Grass plant response rating (Surinam grass; [20]) | Plant response rating, Surinam Grass (Surinam grass; [21]) | Cocklebur plant response rating (0 to 100 scale) (cocklebur; [19]) | Cocklebur plant response rating (cocklebur; [20]) | Plant response rating, Cocklebur (cocklebur; [21]) | Corn plant response rating (0 to 100 scale) (corn; [19]) | Corn plant response rating (corn; [20]) | Plant response rating, Corn (corn; [21]) | Crabgrass, Large plant response rating (0 to 100 scale) (large crabgrass [7]; [19]) | Crabgrass, Large plant response rating (large crabgrass [7]; [20]) | Plant response rating, Crabgrass, Large (large crabgrass [7]; [21]) | Foxtail, Giant plant response rating (0 to 100 scale) (giant foxtail [8]; [19]) | Plant response rating, Foxtail, Giant (giant foxtail [8]; [21]) | Lambsquarters plant response rating (0 to 100 scale) (lambsquarters; [19]) | Plant response rating, Lambsquarters (lambsquarters; [21]) | Morningglory plant response rating (0 to 100 scale) (morningglory [9]; [19]) | Morningglory plant response rating (morningglory [9]; [20]) | Plant response rating, Morningglory (morningglory [9]; [21]) | Pigweed plant response rating (0 to 100 scale) (pigweed; [19]) | Pigweed plant response rating (pigweed; [20]) | Plant response rating, Pigweed (pigweed; [21]) | Rice plant response rating (0 to 100 scale) (rice [10]; 125 g ai/ha) | Plant response rating, Rice (rice [10]; 500 g ai/ha, visual rating) | Velvetleaf plant response rating (velvetleaf [11]; [20]) | Plant response rating, Velvetleaf (velvetleaf [11]; [21]) | Blackgrass plant response rating (blackgrass; [20]) | Wheat plant response rating (wheat; [20]) | Wheat plant response rating (wheat; [22]) | Rice plant response rating (rice [12]) | Sedge, Umbrella plant response rating [13] | Ducksalad plant response rating (ducksalad) | Barnyardgrass plant response rating (barnyardgrass [14])
10: Crabgrass, Large plant response rating (large crabgrass [2]; [17]) | Plant response rating, Morningglory (morningglory [4]; [16]) | Plant response rating, Velvetleaf (velvetleaf [5]; [16]) | Cocklebur plant response rating (cocklebur; [22]) | Foxtail, Giant plant response rating (giant foxtail [8]; [20]) | Blackgrass plant response rating (blackgrass; [22]) | Oat, Wild plant response rating (wild oat; [20])
35: Pigweed plant response rating (redroot pigweed; [17])
20: Pigweed plant response rating (redroot pigweed; [15]) | Lambsquarters plant response rating (lambsquarters; [20]) | Oat, Wild plant response rating (wild oat; [22])
80: Foxtail, Giant plant response rating (giant foxtail [8]; [22])
25: Barnyardgrass plant response rating (barnyardgrass [1]; [15]) | Barnyardgrass plant response rating (barnyardgrass [1]; [17]) | Plant response rating, Crabgrass, Large (large crabgrass [2]; [16])
40: Plant response rating, Barnyardgrass (barnyardgrass [1]; [16]) | Morningglory plant response rating (morningglory [9]; [22])
75: Plant response rating, Foxtail, Giant (giant foxtail [3]; [16])
5: Crabgrass, Large plant response rating (large crabgrass [2]; [15]) | Morningglory plant response rating (morningglory [4]; [15]) | Velvetleaf plant response rating (velvetleaf [5]; [15])
